Consider one compound from patent US20230013453A1, “RESVERATROL SKIN PREPARATION” (priority 2021, published 2023).

This series can be described thus: specification test of 98% trans-resveratrol (FIG. 5): solubility. The series is classed as physicochemical. Particulars: extracted or sieved 98% trans-resveratrol. From the text:
It may be in powder form and either white or light yellow in color. […] It is also devoid of any significant amounts of metals, bacteria or other adulterants or additives.

Take `Oc1ccc(/C=C/c2cc(O)cc(O)c2)cc1` [trans-resveratrol]: the solubility in ethanol result is recorded as “soluble in ethanol”.
